The values that follow come from patent US20230114811A1, “GLYCOSYLTRANSFERASES, POLYNUCLEOTIDES ENCODING THESE AND METHODS OF USE” (THE NEW ZEALAND INSTITUTE FOR PLANT AND FOOD RESEARCH …, priority 2020, published 2023).

Data set [1] has as its system recombinant PGT2 cloned from M. toringoides. The data set can be described thus: Substrate specificity of recombinant PGT2, UDP-glucoside as sugar donor, products determined by LC-MS/MS. Type of data set: biochemical. The note with it: amount of product formed relative to conversion of phloretin to trilobatin set at 100%. How it is done: The products of each reaction were determined by LC-MS/MS. […] Quercetin-3-O-glucoside was detected as a reaction product using quercetin (FIG. 8A-F) with a lower conversion rate of 9.1% (Table 7).

Data set [2] can be described thus: Isosweetness comparison test between trilobatin and sucrose (sensory panel). Type of data set: in vivo. The note with it: n=5 participants. How it is done: Five participants with high acuity for trilobatin in the triangle test were selected to perform the isosweetness comparison test between trilobatin and sucrose. Each participant was given one trilobatin solution and eight sucrose solutions at different concentrations to taste. Solutions were prepared as described above for the apple leaf teas. The trilobatin solutions were presented at 12.3, 18.5, 27.8 and 41.7 mg per 100 ml, while the sucrose solutions were presented at 296.3, 444.4, 592.6, 666.7, 888.9, 1000, 1333.3 and 2000 mg per 100 ml.

For data set [3] the following is noted: Jia et al., 2008; cited from earlier work.
Substrate in data set [4]: O=C(CCc1ccc(O)cc1)c1c(O)cc(O)cc1O
Put plainly: Km/Vmax determination for recombinant PGT2 (glycosyltransferase activity assay, HPLC). Type of data set: biochemical, M. toringoides. The conditions noted are these: other: phloretin 4-500 μM, fixed UDP-glucose 500 μM, pH 9.0, 0.1 M Tris-HCl, 40° C., 10 min.

Where “and” joins values, the source holds several entries; their conditions need not be identical. Equal values may be shown once.

Consider `O=C(O)/C=C/c1ccc(O)c(O)c1` [caffeic acid], for which the “Conversion (%)” value in data set [1] was 0%.

Regarding `O=c1c(O)c(-c2ccc(O)c(O)c2)oc2cc(O)cc(O)c12` [quercetin], the “Conversion (%)” value in data set [1] is 9.1% and 9.1 ± 0.1%.

Consider `O=C(CCc1ccc(O)c(O)c1)c1c(O)cc(O[C@@H]2O[C@H](CO)[C@@H](O)[C@H](O)[C@H]2O)cc1O` [sieboldin, 3-hydroxyphloretin-4′-O-glucoside], for which the “Conversion (%)” value in data set [1] was determined as 0%.

Take `COc1ccc([C@@H]2CC(=O)c3c(O)cc(O[C@@H]4O[C@H](CO)[C@@H](O)[C@H](O)[C@H]4O[C@@H]4O[C@@H](C)[C@H](O)[C@@H](O)[C@H]4O)cc3O2)cc1O` [neohesperidin]: the “Conversion (%)” value in data set [1] is listed as 0%.

Regarding `O=C(CCc1ccc(O)cc1)c1c(O)cc(O)cc1O` [phloretin, 3-(4-hydroxyphenyl)-1-(2,4,6-trihydroxyphenyl)propan-1-one], the “Conversion (%)” value in data set [1] turned out to be 100.0 ± 6.1%.

As for `O=C(/C=C/c1ccc(O)c(O)c1)O[C@@H]1C[C@](O)(C(=O)O)C[C@@H](O)[C@H]1O` [chlorogenic acid], the “Conversion (%)” value in data set [1] worked out at 0%.

For `O=C(CCc1ccc(O)c(O)c1)c1c(O)cc(O)cc1O` [3-OH phloretin], in data set [1], the “Conversion (%)” value was found to be 58.7 ± 2.3%.

On to `O=C1C[C@@H](c2ccc(O)cc2)Oc2cc(O)cc(O)c21` [naringenin], for which the “Conversion (%)” value in data set [1] came to 0%.

For the molecule `O=C(CCc1ccc(O)cc1)c1c(O)cc(O[C@@H]2O[C@H](CO)[C@@H](O)[C@H](O)[C@H]2O)cc1O` [trilobatin, 1-[2,6-dihydroxy-4-[(2S,3R,4S,5S,6R)-3,4,5-trihydroxy-6-(hydroxymethyl)oxan-2-yl]oxyphenyl]-3-(4-hydroxyphenyl)propan-1-one], in data set [1], the “Conversion (%)” value stood at 0%. Also, in data set [2] (R^2=0.98, mean±SE), the “Isosweetness (trilobatin vs sucrose)” value is 35.2+1.66. This molecule also registered a sweeter than sucrose in data set [2] (trilobatin purified from leaves of crabapple hybrid ‘Adams’) of roughly 35 fold. In addition, in data set [3], the “sweeter than sucrose (reported)” value is recorded as roughly 100 × and the sweetness detection threshold is 3 to 200 mg/L.

Take `O=C(O)/C=C/c1ccc(O)cc1` [4-coumaric acid]: the “Conversion (%)” value in data set [1] is 0%.

B1: PGT2 (Malus toringoides) (protein)
chain: MEATAIVLYPSPLIGHLVSMVELGKLILTRHPSLCIHILITTPPYRANDTDSYITSVSAANPSLIFHHLPTISLPPSLASSRNHEILAFELAPLYNPNVHQALVSISHNFSIKAFVMDFFCYVGLPVATELNIPSYFFFTSSANTLASSLYLPTLHNIIDKSLKDLNILLNIPGVPPMPSSDMPQPTLDRNQKVYEHVQGSSKQFPKSAGIIVNTFESLEPRALRAIWDGLCLPENVPTPPVYPIGPLIVSHGGGGRGAECLKWLDSQPSGSVVFLCFGSLGLFSKEQLKEIAIGLENSGHRFLWVVRNPPAQNQIGLDIKESDPELKSLLPDGFLDRTKDRGLVVKSWAPQAAVLNHNSVGGFVSHCGWNSVLESVCAGVPIVAWPLYAEQRFNRVVLVKEIKIAMPMNESEDGFVRAAEVEKRITELMDSEEGASIRKRTKDLQNNAHAALGETGSSGVALTKLLEFWGKTC
For B1, in data set [4], the Michaelis-Menten constant (Km) worked out at 18.0 ± 6.7 µM and the Vmax amounted to 1.85 ± 0.17 nmol/min.
